Read-outs that look alike come from different tables or passages of the source.
Experiments:
[1] = target: recombinant human PIM1 (Homo sapiens (Human), UniProt P11309); test: PIM-1 kinase activity in cell-free in vitro assay; assay type: biochemical; settings: cell-free assay; for inhibition at 0.5 µM: 500 nM compound, read-out: PIM-1: % inh 500 nM
[2] = target: recombinant human CK2 (Homo sapiens (Human), UniProt P68400); test: CK2 assay (cell-free, 33P-ATP filter plate); assay type: biochemical; settings: for inhibition at 0.5 µM: 500 nM compound, cell-free assay, read-out: CK2: % inh 500 nM; for inhibition at 5 µM: read-out: CK2 % inhibition 5 uM, 5 uM
[3] = read-out: CK2 % inhibition 1.0 uM, 1.0 uM

Sequence of recombinant human PIM1 (P11309 whole entry): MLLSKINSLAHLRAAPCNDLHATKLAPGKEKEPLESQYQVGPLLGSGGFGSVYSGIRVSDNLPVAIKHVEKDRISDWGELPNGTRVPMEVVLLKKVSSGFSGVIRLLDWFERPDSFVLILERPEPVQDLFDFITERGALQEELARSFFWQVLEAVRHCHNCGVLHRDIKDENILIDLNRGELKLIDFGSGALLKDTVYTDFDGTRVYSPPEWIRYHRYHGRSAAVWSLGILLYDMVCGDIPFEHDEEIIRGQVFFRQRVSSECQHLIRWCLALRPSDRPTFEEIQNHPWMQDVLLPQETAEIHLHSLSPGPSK
Sequence of recombinant human CK2 (P68400 whole entry): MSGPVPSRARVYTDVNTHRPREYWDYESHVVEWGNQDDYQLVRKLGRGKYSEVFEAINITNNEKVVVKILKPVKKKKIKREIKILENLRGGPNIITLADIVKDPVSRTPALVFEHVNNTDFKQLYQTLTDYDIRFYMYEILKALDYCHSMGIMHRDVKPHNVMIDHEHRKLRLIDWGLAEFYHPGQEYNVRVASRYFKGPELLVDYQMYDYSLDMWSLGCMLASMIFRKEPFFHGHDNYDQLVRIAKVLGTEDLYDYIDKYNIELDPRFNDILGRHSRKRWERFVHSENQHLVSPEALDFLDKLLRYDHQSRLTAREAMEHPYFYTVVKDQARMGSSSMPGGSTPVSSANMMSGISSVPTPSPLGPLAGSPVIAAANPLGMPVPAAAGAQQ
Sequence of recombinant human CK2 (P67870 whole entry partner): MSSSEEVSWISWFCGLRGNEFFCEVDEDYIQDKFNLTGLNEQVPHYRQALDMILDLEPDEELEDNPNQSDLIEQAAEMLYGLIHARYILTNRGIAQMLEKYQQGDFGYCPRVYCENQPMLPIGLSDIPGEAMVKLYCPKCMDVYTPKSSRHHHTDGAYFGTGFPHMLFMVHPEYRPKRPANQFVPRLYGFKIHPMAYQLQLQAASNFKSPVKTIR

Compound	inhibition at 0.5 µM [1]	inhibition at 0.5 µM [2]	other results
CN1CCCCC1CNc1nc2cc(C#N)ccc2c2cscc12 (stereo not shown)	46.4%	24.6%	
CN(C)CCNc1nc2cc(C#N)ccc2c2cscc12	20%	23.4%	
CCN1CCCC1CNc1nc2cc(C#N)ccc2c2cscc12 (stereo not shown)	6.89%	20.7%	
CN(C)CCNc1nc2cc(-c3nnn[nH]3)ccc2c2cscc12	89.7%	66%	IC50 [1]: 87 nM
CCN1CCCC1CNc1nc2cc(-c3nnn[nH]3)ccc2c2cscc12 (stereo not shown)	95.9%	72.8%	IC50 [1]: 79 nM
CN1CCCCC1CNc1nc2cc(-c3nnn[nH]3)ccc2c2cscc12 (stereo not shown)	93.9%	57.4%	IC50 [1]: 54 nM
CCN1CCCC1CNc1nc2cc(C(=O)O)ccc2c2cnccc12 (stereo not shown)	79.4%	107%	IC50 [1]: 155 nM
CN1CCCCC1CNc1nc2cc(C(=O)O)ccc2c2cnccc12 (stereo not shown)	82.5%	103%	IC50 [1]: 211 nM
CN1CCCCC1CNc1nc2cc(C(=O)O)ccc2c2sccc12 (stereo not shown)	88%	80.1%	IC50 [1]: 104 nM
CCN1CCCC1CNc1nc2cc(C(=O)O)ccc2c2sccc12 (stereo not shown)	93.3%	92.8%	IC50 [1]: 100 nM
CCN1CCCC1CNc1nc2cc(C#N)ccc2c2ccsc12 (stereo not shown)	-9.29%	-29.4%	
CC(C)(C)OC(=O)N1CCC(Nc2nc3cc(C#N)ccc3c3ccsc23)CC1	-29.4%	-17%	
CN(C)CCNc1nc2cc(C#N)ccc2c2ccsc12	115%	-16.8%	
CN1CCCCC1CNc1nc2cc(C#N)ccc2c2ccsc12 (stereo not shown)	59.5%	5.51%	
CCN1CCCC1CNc1nc2cc(-c3nnn[nH]3)ccc2c2ccsc12 (stereo not shown)	80%	1.86%	
c1cc2c(s1)c(NC1CCNCC1)nc1cc(-c3nnn[nH]3)ccc12	111%	53.7%	IC50 [1]: 138 nM
CN(C)CCNc1nc2cc(-c3nnn[nH]3)ccc2c2ccsc12	99.2%	24.2%	IC50 [1]: 267 nM
CN1CCCCC1CNc1nc2cc(-c3nnn[nH]3)ccc2c2ccsc12 (stereo not shown)	14.7%	-29.1%	
COCCNc1nc2cc(C#N)ccc2c2sccc12	-30.6%	-18%	
COC(C)(C)CNc1nc2cc(C#N)ccc2c2sccc12	-30%	-17.1%	

Compound	inhibition at 0.5 µM [1]	inhibition at 0.5 µM [2]	other results
COCCNc1nc2cc(-c3nnn[nH]3)ccc2c2sccc12	65%	47.2%	
OCCNc1nc2cc(-c3nnn[nH]3)ccc2c2sccc12	101%	51.3%	IC50 [1]: 143 nM
N#Cc1ccc2c(c1)nc(Oc1ccccc1)c1ccsc12	-38.6%	-54.2%	
COC(=O)c1cccc2c1[nH]c(=O)c1ccncc12	-70.5%	16.7%	
N#Cc1ccc2c(c1)nc(OCC(F)(F)F)c1ccsc12	-50.2%	-9.05%	
N#Cc1ccc2c(c1)nc(OCc1ccccc1)c1ccsc12	-18.4%	1.85%	
CN(C)CCOc1nc2cc(C#N)ccc2c2sccc12	-43.2%	-18%	
N#Cc1ccc2c(c1)nc(NCCN(CCO)CCO)c1ccsc12	-17.7%	-9.97%	
N#Cc1ccc2c(c1)nc(NCCC(F)(F)F)c1ccsc12	-89.6%	-7.76%	
N#Cc1ccc2c(c1)nc(NCC(F)(F)F)c1ccsc12	-32%	-18.4%	
c1ccc(COc2nc3cc(-c4nnn[nH]4)ccc3c3sccc23)cc1	-6.97%	5.71%	
CN(C)CCOc1nc2cc(-c3nnn[nH]3)ccc2c2sccc12	91.6%	31.4%	
FC(F)(F)COc1nc2cc(-c3nnn[nH]3)ccc2c2sccc12	32.3%	33%	
FC(F)(F)CNc1nc2cc(-c3nnn[nH]3)ccc2c2sccc12	93.2%	49%	
FC(F)(F)CCNc1nc2cc(-c3nnn[nH]3)ccc2c2sccc12	92.3%	58.4%	
CN1CCC(N(C)c2nc3cc(CN)ccc3c3sccc23)C1 (stereo not shown)	-39.8%	-35.3%	
CN1CCC(N(C)c2nc3cc(CNC(=O)Nc4cccc(Cl)c4)ccc3c3sccc23)C1 (stereo not shown)	-38.5%	-50.4%	
O=C(O)c1ccc2c(c1)nc(NC1CCCCC1)c1ccncc12	64.8%	95.8%	
O=C(O)c1ccc2c(c1)nc(NC1CCCC1)c1ccncc12	106%	101%	IC50 [1]: 565 nM
N#Cc1ccc2c(c1)nc(Nc1cccc(F)c1)c1ccsc12	-4.85%	3.06%	

Compound	inhibition at 0.5 µM [1]	inhibition at 0.5 µM [2]	other results
OCCN(CCO)CCNc1nc2cc(-c3nnn[nH]3)ccc2c2sccc12	118%	50.7%	IC50 [1]: 116 nM
N#Cc1ccc2c(c1)nc(Oc1ccc(F)c(F)c1)c1ccsc12	27.8%	-9.99%	
N#Cc1ccc2c(c1)nc(Oc1ccc3ncccc3c1)c1ccsc12	-22.2%	-7.33%	
N#Cc1ccc2c(c1)nc(Oc1ccc(F)cc1)c1ccsc12	10%	-3.78%	
O=c1[nH]c2cc(-c3nnn[nH]3)ccc2c2cnccc12 [drawing 568]			inhibition at 1 µM ([2]; at 1 μM, read-out: CK2 Inhibition): 46%
N#Cc1ccc2c(c1)nc(Cl)c1ccsc12 [drawing 587]			inhibition at 5 µM [2]: 63%
c1ccc(Nc2nc3ccccc3c3sccc23)cc1 [drawing 588]			inhibition at 5 µM [2]: 0%
CN(C)CCNc1nc2ccccc2c2sccc12 [drawing 589]			inhibition at 5 µM [2]: 0%
O=C(O)c1ccc2c(c1)nc(N1CCOCC1)c1ccsc12 [drawing 590]			inhibition at 5 µM [2]: 28%
CN(C)CCNc1nc2cc(C#N)ccc2c2sccc12 [drawing 612]			inhibition at 1 µM [2, 3]: 0%
N#Cc1ccc2c(c1)nc(Nc1ccccc1)c1ccsc12 [drawing 614]			inhibition at 1 µM [2, 3]: 0%
NC(=O)c1ccc2c(c1)nc(Nc1ccccc1)c1ccsc12 [drawing 615]			inhibition at 1 µM [2, 3]: 0%
O=c1[nH]c(-c2ccc3c(c2)nc(Nc2ccccc2)c2ccsc23)no1 [drawing 617]			inhibition at 1 µM [2, 3]: 0%
O=C(NCc1ccccc1)c1ccc2c(c1)[nH]c(=O)c1ccsc12 [drawing 671]			CK2 % inhib @ 10 uM [2]: 14%
O=C(NCc1ccccc1)c1ccc2c(c1)[nH]c(=O)c1ccsc12 [drawing 672]			CK2 % inhib @ 10 uM [2]: −1%
COC(=O)c1ccccc1NC(=O)c1ccc2c(c1)[nH]c(=O)c1ccsc12 [drawing 673]			CK2 % inhib @ 10 uM [2]: 5%
COC(=O)c1ccccc1NC(=O)c1ccc2c(c1)[nH]c(=O)c1ccsc12 [drawing 674]			CK2 % inhib @ 10 uM [2]: −16%
CC(C)(C)OC(=O)NC1CCN(C(=O)c2ccc3c(c2)[nH]c(=O)c2ccsc23)CC1 [drawing 676]			CK2 % inhib @ 10 uM [2]: 10%
CC(C)(C)OC(=O)NC1CCN(C(=O)c2ccc3c(c2)[nH]c(=O)c2ccsc23)CC1 [drawing 677]			CK2 % inhib @ 10 uM [2]: 1%

— patent US8168651B2, “Protein kinase modulators” (Cylene Pharmaceuticals, Inc., priority 2008, dated 2012)
